The species entered for one experiment is Xenopus laevis. The conditions noted are these: at 10 to 100 µM.
In experiment [1] the target is Platelet-derived growth factor receptor beta (Homo sapiens, UniProt P09619). Nature of the experiment: Inhibition of PDGFRb (unknown origin).
Experiment [2] concerns the target Vascular endothelial growth factor receptor 1 (Homo sapiens, UniProt P17948). Nature of the experiment: Inhibition of VEGFR1 (unknown origin).
Experiment [3] has as its target Vascular endothelial growth factor receptor 2 (Homo sapiens, UniProt P35968). Description: Inhibition of VEGFR2 (unknown origin).
The target in the next experiment is T1, Histone deacetylase 7 (Homo sapiens, UniProt Q8WUI4).
T1 sequence (Q8WUI4 whole entry): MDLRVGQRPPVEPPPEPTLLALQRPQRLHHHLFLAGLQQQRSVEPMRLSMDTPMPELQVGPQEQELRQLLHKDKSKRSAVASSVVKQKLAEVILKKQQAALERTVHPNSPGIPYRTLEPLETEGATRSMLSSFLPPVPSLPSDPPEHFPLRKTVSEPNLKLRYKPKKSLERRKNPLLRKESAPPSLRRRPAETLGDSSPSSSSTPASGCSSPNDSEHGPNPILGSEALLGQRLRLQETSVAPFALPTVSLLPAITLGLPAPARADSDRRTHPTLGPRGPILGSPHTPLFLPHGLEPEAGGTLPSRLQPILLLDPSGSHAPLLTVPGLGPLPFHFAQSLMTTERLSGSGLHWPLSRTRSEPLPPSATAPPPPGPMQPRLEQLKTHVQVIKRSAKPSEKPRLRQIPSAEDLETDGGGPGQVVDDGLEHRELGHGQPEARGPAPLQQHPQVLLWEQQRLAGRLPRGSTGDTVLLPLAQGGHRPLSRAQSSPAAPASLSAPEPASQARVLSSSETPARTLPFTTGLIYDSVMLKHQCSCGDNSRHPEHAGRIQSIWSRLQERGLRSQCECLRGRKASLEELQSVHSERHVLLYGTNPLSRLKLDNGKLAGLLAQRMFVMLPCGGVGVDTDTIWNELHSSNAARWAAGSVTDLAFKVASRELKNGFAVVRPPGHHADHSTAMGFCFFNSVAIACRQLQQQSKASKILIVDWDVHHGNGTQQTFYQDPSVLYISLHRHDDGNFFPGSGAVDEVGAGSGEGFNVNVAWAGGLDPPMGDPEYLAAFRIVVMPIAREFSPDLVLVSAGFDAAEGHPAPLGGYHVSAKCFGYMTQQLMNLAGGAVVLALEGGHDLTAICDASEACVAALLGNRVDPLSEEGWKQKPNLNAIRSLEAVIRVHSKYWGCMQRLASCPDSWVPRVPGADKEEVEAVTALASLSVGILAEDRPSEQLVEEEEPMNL
Nature of the experiment: Inhibition of HDAC7 (unknown origin).

The target in a further experiment is Histone deacetylase 9 (Homo sapiens, UniProt Q9UKV0). Description: Inhibition of HDAC9 (unknown origin).
Another experiment concerns the target Histone deacetylase 5 (Homo sapiens, UniProt Q9UQL6). Description: Inhibition of HDAC5 (unknown origin).
The target in a further experiment is Histone deacetylase 4 (Homo sapiens, UniProt P56524). Nature of the experiment: Inhibition of HDAC4 (unknown origin).
Experiment [4] has as its target Histone deacetylase (Homo sapiens) (UniProt Q13547+O15379+Q9UBN7+Q92769+Q9UQL6+Q8WUI4+Q9BY41+Q96DB2+P56524+Q9UKV0+Q969S8). Nature of the experiment: Inhibition of HDAC isolated from human HeLa cells at 1 uM by fluorimetric assay. Format: cell-free.
The target of another experiment is Histone deacetylase. Format: cell-based, Homo sapiens. The conditions noted are these: hela.
Experiment [5] deals with Platelet-derived growth factor receptor alpha (Homo sapiens, UniProt P16234). Description: Inhibition of PDGFRa (unknown origin).
Experiment [6] relates to MDA-MB-231. Nature of the experiment: Cytotoxicity against human MDA-MB-231 cells assessed as reversal of cell viability at 10 uM after 72 hrs by MTT assay in presence of SAHA. Format: functional, cell-based. (In general: Tetrazolium assays rely on reduction of a dye to a coloured formazan, in cell work by metabolically active cells.)
The subject of experiment [7] is MDA-MB-231. Description: Cytotoxicity against human MDA-MB-231 cells assessed as reversal of cell viability at 200 uM after 72 hrs by MTT assay in presence of SAHA. Type of experiment: functional.
Experiment [8] deals with T2, Protein deacetylase HDAC6 (Homo sapiens, UniProt Q9UBN7).
T2 sequence (Q9UBN7 whole entry): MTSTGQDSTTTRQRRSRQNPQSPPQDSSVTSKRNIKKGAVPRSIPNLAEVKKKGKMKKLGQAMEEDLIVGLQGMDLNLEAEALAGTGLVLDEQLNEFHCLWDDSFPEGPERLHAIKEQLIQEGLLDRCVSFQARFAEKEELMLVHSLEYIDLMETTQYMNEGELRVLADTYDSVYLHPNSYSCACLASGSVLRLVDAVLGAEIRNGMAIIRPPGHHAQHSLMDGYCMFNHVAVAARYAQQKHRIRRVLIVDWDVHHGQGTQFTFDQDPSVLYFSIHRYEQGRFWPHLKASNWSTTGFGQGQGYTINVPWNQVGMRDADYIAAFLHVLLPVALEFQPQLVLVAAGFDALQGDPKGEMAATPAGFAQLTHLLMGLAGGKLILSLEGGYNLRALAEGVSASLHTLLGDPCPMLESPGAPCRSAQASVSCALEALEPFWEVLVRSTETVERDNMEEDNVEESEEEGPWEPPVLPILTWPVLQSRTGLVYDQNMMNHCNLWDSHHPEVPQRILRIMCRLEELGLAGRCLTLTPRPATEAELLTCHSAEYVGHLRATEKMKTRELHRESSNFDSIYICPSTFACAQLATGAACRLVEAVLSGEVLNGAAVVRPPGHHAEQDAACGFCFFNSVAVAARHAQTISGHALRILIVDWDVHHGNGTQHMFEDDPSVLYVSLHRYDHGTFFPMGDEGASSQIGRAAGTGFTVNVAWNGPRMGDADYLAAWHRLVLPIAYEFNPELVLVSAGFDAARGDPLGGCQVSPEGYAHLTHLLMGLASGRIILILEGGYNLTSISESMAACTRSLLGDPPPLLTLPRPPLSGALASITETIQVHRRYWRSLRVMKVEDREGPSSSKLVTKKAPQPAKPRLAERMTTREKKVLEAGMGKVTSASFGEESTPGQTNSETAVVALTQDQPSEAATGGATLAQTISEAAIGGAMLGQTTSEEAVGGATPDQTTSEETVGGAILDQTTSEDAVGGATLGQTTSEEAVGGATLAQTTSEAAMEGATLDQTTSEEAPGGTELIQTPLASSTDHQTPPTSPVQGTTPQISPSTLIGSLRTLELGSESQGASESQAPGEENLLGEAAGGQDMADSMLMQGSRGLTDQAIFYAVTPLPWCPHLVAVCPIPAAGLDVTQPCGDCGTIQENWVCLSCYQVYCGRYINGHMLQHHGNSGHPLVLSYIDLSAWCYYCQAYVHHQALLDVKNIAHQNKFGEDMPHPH
Nature of the experiment: Inhibition of HDAC6 (unknown origin).

In a further experiment the target is Histone deacetylase 1 (Homo sapiens, UniProt Q13547). Nature of the experiment: Inhibition of HDAC1 (unknown origin).
Another experiment deals with T3, Histone deacetylase 8 (Homo sapiens, UniProt Q9BY41).
T3 sequence (Q9BY41 whole entry): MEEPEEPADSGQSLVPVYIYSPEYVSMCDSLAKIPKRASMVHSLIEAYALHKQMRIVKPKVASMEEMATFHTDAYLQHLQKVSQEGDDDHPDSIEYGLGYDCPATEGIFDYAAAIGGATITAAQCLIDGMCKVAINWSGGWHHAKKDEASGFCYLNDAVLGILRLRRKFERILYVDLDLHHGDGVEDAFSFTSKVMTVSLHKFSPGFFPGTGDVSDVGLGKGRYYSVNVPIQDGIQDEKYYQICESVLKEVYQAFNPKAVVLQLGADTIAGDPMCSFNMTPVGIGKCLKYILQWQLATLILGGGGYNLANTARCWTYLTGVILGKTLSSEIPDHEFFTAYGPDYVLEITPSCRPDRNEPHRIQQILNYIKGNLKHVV
Description: Inhibition of HDAC8 (unknown origin).

The target of the next experiment is Histone deacetylase 3 (Homo sapiens, UniProt O15379). Description: Inhibition of HDAC3 (unknown origin).
In the next experiment the target is Histone deacetylase 2 (Homo sapiens, UniProt Q92769).

Each structure is given as a SMILES string. Active and inactive are the calls of the source. The rule behind the calls is not given here.

As usually defined, the inhibition is the change of the read-out against control, counted positive when it falls. One may read the IC50 as the concentration that inhibits the measured activity by half.

Chain of Vascular endothelial growth factor receptor 2 (P35968 whole entry): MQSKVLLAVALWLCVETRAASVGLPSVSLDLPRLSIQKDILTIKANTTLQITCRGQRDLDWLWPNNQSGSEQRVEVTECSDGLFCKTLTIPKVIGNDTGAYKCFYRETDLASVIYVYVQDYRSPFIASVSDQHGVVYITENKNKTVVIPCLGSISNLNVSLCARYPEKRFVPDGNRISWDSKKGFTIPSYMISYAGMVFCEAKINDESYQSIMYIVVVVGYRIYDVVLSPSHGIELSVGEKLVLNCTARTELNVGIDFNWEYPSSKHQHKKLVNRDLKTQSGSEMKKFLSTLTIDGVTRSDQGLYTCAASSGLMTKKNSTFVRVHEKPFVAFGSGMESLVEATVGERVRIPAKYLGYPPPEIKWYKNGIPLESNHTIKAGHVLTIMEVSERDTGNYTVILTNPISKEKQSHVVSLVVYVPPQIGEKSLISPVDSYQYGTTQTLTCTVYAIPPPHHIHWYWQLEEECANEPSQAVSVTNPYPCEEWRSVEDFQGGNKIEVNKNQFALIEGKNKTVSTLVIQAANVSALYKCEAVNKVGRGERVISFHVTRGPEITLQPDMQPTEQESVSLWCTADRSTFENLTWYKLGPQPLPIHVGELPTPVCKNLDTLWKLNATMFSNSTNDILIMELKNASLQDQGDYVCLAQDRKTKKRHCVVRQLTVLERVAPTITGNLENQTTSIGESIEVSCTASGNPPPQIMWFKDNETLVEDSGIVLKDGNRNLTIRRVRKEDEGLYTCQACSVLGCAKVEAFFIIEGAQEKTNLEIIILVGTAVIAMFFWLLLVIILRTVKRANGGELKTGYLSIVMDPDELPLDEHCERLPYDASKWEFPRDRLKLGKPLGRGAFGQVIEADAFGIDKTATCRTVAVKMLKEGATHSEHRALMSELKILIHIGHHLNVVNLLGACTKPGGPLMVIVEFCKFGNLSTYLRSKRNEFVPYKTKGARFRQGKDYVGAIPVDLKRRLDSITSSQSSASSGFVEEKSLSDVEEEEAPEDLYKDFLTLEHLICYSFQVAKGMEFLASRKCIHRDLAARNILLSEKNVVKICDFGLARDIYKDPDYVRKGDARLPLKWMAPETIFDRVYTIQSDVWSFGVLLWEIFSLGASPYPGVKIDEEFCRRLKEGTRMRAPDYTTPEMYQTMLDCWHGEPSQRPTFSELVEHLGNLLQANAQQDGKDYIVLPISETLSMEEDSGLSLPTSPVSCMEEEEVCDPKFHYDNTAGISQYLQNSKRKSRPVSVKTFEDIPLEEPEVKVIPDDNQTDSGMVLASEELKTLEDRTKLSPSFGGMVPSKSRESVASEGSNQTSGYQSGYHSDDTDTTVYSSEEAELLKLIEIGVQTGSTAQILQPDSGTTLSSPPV
Chain of Histone deacetylase 3 (O15379 whole entry): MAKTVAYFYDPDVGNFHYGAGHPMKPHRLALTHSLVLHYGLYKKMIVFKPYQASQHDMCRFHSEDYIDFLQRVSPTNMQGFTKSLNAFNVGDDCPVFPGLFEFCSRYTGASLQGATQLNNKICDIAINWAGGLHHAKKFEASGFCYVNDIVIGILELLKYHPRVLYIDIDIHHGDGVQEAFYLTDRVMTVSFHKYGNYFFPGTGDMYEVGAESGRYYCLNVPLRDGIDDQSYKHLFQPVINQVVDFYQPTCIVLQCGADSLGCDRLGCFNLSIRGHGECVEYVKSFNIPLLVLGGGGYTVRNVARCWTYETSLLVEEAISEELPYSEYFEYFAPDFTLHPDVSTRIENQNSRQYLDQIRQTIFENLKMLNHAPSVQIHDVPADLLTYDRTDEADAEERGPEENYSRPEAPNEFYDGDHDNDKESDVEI
Chain of Histone deacetylase 2 (Q92769 whole entry): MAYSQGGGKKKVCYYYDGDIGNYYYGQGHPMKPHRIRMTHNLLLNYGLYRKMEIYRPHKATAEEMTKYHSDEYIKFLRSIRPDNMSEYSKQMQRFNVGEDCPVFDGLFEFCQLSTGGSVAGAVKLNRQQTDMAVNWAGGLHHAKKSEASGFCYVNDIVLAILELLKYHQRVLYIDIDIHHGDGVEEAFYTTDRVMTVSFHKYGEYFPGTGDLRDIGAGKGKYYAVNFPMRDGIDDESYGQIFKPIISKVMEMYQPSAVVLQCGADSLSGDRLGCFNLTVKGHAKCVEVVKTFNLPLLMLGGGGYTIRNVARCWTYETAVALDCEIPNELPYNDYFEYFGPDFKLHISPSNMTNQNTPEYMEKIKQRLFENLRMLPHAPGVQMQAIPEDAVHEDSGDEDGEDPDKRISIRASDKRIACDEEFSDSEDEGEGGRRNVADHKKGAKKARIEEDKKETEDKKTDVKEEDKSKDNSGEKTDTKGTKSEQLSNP
Chain of Histone deacetylase 9 (Q9UKV0 whole entry): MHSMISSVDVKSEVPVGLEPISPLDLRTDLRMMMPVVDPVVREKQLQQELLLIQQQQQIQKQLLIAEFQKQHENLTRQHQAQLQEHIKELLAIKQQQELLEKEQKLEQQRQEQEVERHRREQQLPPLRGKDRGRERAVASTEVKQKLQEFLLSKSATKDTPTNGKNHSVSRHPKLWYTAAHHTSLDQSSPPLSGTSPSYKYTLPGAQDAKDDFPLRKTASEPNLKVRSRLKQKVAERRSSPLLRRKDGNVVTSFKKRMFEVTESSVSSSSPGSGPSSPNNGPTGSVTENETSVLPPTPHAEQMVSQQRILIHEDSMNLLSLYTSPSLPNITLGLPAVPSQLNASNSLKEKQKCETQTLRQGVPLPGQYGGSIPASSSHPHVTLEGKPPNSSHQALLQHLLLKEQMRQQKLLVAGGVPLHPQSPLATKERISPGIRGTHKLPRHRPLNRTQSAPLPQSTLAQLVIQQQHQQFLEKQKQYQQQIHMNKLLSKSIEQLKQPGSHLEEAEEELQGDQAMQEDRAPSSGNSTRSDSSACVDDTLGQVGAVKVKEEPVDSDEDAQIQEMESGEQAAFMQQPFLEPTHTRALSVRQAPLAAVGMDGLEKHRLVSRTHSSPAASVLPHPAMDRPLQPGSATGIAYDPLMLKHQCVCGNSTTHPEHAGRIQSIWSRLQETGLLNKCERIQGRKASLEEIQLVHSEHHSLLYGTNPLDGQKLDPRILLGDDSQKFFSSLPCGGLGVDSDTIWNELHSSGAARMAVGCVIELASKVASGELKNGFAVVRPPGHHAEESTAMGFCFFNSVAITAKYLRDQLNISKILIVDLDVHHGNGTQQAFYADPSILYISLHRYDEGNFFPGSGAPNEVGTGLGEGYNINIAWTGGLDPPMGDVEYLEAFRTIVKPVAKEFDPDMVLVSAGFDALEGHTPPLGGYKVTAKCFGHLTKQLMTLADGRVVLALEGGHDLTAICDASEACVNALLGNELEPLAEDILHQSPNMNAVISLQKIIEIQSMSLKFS
Chain of Histone deacetylase 4 (P56524 whole entry): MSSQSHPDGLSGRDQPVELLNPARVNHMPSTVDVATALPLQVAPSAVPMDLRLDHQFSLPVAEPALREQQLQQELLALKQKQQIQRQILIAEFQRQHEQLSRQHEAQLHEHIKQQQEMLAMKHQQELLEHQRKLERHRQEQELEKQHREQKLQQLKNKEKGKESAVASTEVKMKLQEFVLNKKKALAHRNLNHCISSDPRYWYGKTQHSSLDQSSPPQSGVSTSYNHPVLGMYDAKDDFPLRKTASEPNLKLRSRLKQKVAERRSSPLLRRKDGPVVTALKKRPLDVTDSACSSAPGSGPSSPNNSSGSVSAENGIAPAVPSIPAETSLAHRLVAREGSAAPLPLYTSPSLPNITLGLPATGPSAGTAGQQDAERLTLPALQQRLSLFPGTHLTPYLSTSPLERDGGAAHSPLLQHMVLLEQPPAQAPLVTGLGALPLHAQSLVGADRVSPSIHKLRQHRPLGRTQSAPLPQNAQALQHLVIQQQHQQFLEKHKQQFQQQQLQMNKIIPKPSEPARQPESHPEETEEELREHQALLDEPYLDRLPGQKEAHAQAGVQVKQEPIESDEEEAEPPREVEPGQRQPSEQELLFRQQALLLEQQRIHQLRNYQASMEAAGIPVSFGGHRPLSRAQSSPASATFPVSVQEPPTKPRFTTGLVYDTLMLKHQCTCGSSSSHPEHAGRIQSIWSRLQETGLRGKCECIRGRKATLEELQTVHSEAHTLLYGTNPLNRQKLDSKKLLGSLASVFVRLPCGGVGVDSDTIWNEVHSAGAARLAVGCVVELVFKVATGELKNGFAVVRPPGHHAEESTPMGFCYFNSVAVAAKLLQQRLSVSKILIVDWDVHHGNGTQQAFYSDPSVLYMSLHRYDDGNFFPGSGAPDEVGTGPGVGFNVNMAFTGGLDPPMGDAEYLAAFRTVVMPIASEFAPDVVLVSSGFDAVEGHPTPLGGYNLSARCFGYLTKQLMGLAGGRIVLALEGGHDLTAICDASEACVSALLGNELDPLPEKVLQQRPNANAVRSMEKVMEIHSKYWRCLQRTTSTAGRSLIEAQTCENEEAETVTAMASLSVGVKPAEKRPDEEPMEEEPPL
Chain of Histone deacetylase 1 (Q13547 whole entry): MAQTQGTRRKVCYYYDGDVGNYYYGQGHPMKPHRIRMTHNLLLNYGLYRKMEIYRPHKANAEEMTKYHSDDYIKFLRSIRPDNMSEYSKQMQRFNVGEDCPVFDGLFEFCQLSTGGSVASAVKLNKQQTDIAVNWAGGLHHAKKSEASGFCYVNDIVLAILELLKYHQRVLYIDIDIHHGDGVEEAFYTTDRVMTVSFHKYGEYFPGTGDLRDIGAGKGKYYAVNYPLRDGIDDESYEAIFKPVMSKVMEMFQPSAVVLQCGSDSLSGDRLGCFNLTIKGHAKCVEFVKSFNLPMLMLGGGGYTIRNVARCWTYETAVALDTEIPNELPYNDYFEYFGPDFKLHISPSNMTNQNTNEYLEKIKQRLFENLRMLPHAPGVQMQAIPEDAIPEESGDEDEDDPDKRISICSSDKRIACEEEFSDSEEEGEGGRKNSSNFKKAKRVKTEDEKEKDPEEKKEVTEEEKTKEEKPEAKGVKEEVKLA

On to `Cc1cc(C)c(/C=C2\C(=O)Nc3ccccc32)[nH]1`, for which the inhibition result in the experiment listed under Xenopus laevis was “Active”.
Take `CSCCCNC(=O)c1ccc2c(c1)/C(=C/c1[nH]c(C)cc1C)C(=O)N2`: the half-inhibitory concentration (IC50) was 8 nM in experiment [1] (read-out: IC50), “Not Active” in experiment [2] and 38 nM in experiment [3] (read-out: IC50).
For `O=C(CCCCCCC(=O)Nc1ccccc1)NO` [VORINOSTAT], the IC50 entry against Histone deacetylase 7, against Histone deacetylase 9, against Histone deacetylase 5 and against Histone deacetylase 4 was “Not Active” each time.
As to `Cc1cc(C)c(/C=C2\C(=O)Nc3ccc(NC(=O)CCCCCCC(=O)NO)cc32)[nH]1`, the inhibition in [4] was above 20%. Moreover, the IC50 entry is “Not Active” in [1]; 443 nM at Histone deacetylase; “Not Active” in experiment [2]; “Not Active” in [3]; “Not Active” in experiment [5].
With `O=C1Nc2ccc(O)cc2/C1=C/c1ccc[nH]1`, the outcome with MDA-MB-231 [6] was Active. For the same compound, the IC50 turned out to be 637 nM in experiment [1] (read-out: IC50), 116 nM in [2] (read-out: IC50), 405 nM in experiment [3] (read-out: IC50) and 406 nM in [5] (read-out: IC50). For the same compound, the Activity with MDA-MB-231 [7] is given as 70%.
On to `CSCCCNC(=O)c1ccc2c(c1)NC(=O)/C2=C\c1[nH]c(C)cc1C`, for which the IC50 entry in experiment [1], in experiment [2] and in experiment [3] was “Not Active” each time.
Turning to `Nc1ccccc1NC(=O)CCCCCCC(=O)Nc1ccc2c(c1)/C(=C/c1ccc[nH]1)C(=O)N2`, the IC50 result is “Not Active” on Histone deacetylase 7; “Not Active” in experiment [1]; “Not Active” on Histone deacetylase 9; “Not Active” on Histone deacetylase 5; 4610 nM in experiment [8] (read-out: IC50); “Not Active” against Histone deacetylase 4. In addition, the IC50 entry in experiment [2] was “Not Active”; in experiment [3], “Not Active”; against Histone deacetylase 1, 373 nM; against Histone deacetylase 8, “Not Active”; at Histone deacetylase 3, 394 nM; against Histone deacetylase 2, 2230 nM. The IC50 result in experiment [5] is “Not Active”.
Regarding `O=C(CCCCC(=O)Nc1ccc2c(c1)/C(=C/c1ccc[nH]1)C(=O)N2)NO`, the IC50 entry is “Not Active” at Histone deacetylase 7; 518 nM in experiment [1] (read-out: IC50); “Not Active” against Histone deacetylase 9; “Not Active” against Histone deacetylase 5; 935 nM at Histone deacetylase; 1.61 nM in [8] (read-out: IC50). In addition, the IC50 result on Histone deacetylase 4 is “Not Active”; in experiment [2] (read-out: IC50), 205 nM; in experiment [3] (read-out: IC50), 290 nM; on Histone deacetylase 1 it was 9.37 nM; on Histone deacetylase 8 (read-out: IC50) it was 312 nM; against Histone deacetylase 3, 9.77 nM. Besides, the IC50 at Histone deacetylase 2 is 20.4 nM; in [5] it was “Not Active”.
With `Nc1ccccc1NC(=O)CCCCC(=O)Nc1ccc2c(c1)/C(=C/c1ccc[nH]1)C(=O)N2`, the IC50 result (at Histone deacetylase 7; in experiment [1]; against Histone deacetylase 9; against Histone deacetylase 5; in [8]; at Histone deacetylase 4) was “Not Active” throughout. Also, the IC50 result was “Not Active” in experiment [2]; “Not Active” in [3]; 1260 nM at Histone deacetylase 1; “Not Active” on Histone deacetylase 8; 2.42 nM against Histone deacetylase 3; 3290 nM at Histone deacetylase 2. Further, the IC50 entry in experiment [5] is recorded as “Not Active”.

(Values after ChEMBL document CHEMBL3621077, “Synthesis of hybrid anticancer agents based on kinase and histone deacetylase inhibitors” (Medchemcomm, 2014).)
